Results from PMC5862592, “CDK8/19 inhibition induces premature G1/S transition and ATR-dependent cell death in prostate cancer cells” (Oncotarget, 2018).
Read-outs that look alike come from different tables or passages of the source.

Assays:
Test in all cases: biochemical
Design in all cases: KINOMEscan active site-directed competition binding assay (DiscoveRx), 456 kinases, per cent of control at 300 nM
Details in all cases: read-out: Percent of Control (%)
[1] = target: KIT (Homo sapiens, UniProt P10721)
Sequence of KIT (P10721 whole entry): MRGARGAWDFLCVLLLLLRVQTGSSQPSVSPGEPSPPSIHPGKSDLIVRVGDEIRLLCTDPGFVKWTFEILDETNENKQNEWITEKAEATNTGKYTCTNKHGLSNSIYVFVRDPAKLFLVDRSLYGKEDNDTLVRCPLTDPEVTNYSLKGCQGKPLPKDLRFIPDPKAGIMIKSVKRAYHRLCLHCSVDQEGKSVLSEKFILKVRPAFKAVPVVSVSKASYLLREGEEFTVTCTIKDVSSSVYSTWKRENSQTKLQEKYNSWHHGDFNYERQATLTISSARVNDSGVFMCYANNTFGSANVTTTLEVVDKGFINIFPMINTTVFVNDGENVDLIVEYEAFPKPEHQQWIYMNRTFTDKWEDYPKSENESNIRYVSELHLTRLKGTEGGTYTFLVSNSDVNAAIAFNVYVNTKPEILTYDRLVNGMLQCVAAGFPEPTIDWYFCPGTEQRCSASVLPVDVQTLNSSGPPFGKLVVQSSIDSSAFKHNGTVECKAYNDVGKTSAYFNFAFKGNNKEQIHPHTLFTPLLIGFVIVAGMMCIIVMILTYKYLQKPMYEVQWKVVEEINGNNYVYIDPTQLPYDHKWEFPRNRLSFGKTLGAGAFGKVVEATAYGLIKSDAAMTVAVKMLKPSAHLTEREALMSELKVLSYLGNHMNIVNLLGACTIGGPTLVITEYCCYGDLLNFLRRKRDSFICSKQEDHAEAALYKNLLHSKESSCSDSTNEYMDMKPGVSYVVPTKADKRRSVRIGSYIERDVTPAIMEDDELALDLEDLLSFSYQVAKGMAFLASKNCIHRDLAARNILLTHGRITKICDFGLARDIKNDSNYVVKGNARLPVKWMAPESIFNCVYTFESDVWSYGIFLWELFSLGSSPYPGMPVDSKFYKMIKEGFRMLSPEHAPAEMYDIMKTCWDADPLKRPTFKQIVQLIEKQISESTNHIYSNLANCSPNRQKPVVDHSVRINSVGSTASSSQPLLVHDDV
Protocol: (§1) Kinase selectivity of T-474 and T-418 was evaluated at 300 nmol/L using a panel of 456 kinases at DiscoveRx (KINOMEscan). The platform employs an active site-directed competition binding assay to quantitatively measure interactions between test compounds and kinases. […] In VCaP prostate cancer cells, treatment with T-474 or T-418 suppressed the phosphorylation of the known CDK8 substrate STAT1 at Ser727 both in the absence and in the presence of IFN-γ (Figure 1B), which stimulates CDK8-mediated STAT1 phosphorylation.

[2] = target: BLK (Homo sapiens, UniProt P51451)
Protocol: as §1

[3] = target: SNRK (Homo sapiens, UniProt Q9NRH2)
Sequence of SNRK (Q9NRH2 whole entry): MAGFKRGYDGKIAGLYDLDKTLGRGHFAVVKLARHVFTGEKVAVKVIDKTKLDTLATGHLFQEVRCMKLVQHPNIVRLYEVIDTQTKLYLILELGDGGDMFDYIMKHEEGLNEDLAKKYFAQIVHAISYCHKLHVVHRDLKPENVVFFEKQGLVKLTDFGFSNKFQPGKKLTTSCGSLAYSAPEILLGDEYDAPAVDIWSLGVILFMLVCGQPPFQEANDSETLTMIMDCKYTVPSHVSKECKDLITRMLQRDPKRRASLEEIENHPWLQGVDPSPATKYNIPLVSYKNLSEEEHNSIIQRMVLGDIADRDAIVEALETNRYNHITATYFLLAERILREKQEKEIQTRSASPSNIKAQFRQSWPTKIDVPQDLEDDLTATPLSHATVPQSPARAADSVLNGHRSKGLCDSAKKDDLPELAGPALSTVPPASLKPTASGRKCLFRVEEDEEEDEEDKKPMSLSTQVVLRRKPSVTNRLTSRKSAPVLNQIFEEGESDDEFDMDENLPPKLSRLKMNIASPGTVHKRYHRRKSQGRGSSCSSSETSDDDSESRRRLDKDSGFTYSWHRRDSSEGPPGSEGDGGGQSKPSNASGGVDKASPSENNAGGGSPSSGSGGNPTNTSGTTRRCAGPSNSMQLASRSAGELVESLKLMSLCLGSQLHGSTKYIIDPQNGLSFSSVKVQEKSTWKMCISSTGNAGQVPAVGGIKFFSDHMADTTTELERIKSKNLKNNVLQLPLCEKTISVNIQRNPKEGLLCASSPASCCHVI
Protocol: as §1

[4] = target: PRKG2 (Homo sapiens, UniProt Q13237)
Protocol: as §1

[5] = target: NEK1 (Homo sapiens, UniProt Q96PY6)
Protocol: as §1

[6] = target: CAMKK1 (Homo sapiens, UniProt Q8N5S9)
Protocol: as §1

[7] = target: EPHA1 (Homo sapiens, UniProt P21709)
Protocol: as §1

[8] = target: T1, RPS6KA4(Kin.Dom.2-C-terminal) (Homo sapiens, UniProt O75676)
T1 construct: Kin.Dom.2-C-terminal
Protocol: as §1

[9] = target: T2, ABL1(T315I)-phosphorylated (Homo sapiens, UniProt P00519, T315I)
T2 construct: phosphorylated
Protocol: as §1

[10] = target: T3, p38-alpha (Homo sapiens, UniProt Q16539)
T3 construct: gene MAPK14
T3 sequence (Q16539 whole entry): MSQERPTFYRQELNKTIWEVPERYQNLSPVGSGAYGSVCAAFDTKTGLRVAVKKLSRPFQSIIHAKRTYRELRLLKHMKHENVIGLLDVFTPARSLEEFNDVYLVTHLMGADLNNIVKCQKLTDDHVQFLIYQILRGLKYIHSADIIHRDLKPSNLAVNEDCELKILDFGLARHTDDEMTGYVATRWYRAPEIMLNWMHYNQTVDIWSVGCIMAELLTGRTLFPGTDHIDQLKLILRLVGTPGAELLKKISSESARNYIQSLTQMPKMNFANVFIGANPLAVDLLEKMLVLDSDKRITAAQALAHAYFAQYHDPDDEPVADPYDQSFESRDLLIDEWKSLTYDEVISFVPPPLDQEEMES
Protocol: as §1

[11] = target: STK33 (Homo sapiens, UniProt Q9BYT3)
Protocol: as §1

[12] = target: KIT(L576P) (Homo sapiens, UniProt P10721, L576P)
Sequence of KIT(L576P) (P10721 whole entry L576P): as the sequence (P10721 whole entry) above, with L576P counted along it
Protocol: as §1

[13] = target: T4, ABL1-nonphosphorylated (Homo sapiens, UniProt P00519)
T4 construct: nonphosphorylated
Protocol: as §1

[14] = target: FGFR1 (Homo sapiens, UniProt P11362)
Protocol: as §1

[15] = target: MAP4K5 (Homo sapiens, UniProt Q9Y4K4)
Sequence of MAP4K5 (Q9Y4K4 whole entry): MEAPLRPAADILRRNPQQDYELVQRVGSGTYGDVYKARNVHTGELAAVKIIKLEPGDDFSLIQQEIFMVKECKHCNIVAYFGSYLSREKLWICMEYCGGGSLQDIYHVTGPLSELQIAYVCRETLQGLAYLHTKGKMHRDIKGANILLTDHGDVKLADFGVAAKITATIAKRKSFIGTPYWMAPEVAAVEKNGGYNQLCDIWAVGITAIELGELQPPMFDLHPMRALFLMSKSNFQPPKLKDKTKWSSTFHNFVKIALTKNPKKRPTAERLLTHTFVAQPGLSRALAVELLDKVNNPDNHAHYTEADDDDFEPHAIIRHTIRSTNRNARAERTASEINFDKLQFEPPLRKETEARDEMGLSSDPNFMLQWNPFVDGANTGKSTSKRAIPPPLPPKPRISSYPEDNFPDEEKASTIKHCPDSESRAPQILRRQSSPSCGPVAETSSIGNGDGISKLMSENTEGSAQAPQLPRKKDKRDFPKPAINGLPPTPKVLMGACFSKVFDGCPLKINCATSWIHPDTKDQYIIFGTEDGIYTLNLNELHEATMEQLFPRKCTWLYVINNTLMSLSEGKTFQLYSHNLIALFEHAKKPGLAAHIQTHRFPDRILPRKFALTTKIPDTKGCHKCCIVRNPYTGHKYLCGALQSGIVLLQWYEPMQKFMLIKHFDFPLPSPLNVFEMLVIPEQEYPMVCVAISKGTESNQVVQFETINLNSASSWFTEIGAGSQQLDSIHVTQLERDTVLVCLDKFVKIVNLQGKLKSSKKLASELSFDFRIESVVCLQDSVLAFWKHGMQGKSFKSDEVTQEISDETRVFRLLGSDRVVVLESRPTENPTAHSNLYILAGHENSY
Protocol: as §1

[16] = target: CSNK1G3 (Homo sapiens, UniProt Q9Y6M4)
Sequence of CSNK1G3 (Q9Y6M4 whole entry): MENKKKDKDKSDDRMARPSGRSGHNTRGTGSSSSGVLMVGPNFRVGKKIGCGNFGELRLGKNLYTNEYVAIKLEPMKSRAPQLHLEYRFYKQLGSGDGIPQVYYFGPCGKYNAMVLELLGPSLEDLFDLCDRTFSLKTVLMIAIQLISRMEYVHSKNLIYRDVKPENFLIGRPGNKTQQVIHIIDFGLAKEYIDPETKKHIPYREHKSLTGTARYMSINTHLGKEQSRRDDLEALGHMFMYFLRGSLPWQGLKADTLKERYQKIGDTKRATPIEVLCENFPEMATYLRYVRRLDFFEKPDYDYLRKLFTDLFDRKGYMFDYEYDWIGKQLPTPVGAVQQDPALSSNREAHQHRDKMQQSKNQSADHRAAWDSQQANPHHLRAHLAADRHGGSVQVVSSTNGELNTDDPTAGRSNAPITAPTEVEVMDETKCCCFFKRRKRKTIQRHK
Protocol: as §1

[17] = target: T5, NIK (Homo sapiens, UniProt Q99558)
T5 construct: gene MAP3K14
T5 sequence (Q99558 whole entry): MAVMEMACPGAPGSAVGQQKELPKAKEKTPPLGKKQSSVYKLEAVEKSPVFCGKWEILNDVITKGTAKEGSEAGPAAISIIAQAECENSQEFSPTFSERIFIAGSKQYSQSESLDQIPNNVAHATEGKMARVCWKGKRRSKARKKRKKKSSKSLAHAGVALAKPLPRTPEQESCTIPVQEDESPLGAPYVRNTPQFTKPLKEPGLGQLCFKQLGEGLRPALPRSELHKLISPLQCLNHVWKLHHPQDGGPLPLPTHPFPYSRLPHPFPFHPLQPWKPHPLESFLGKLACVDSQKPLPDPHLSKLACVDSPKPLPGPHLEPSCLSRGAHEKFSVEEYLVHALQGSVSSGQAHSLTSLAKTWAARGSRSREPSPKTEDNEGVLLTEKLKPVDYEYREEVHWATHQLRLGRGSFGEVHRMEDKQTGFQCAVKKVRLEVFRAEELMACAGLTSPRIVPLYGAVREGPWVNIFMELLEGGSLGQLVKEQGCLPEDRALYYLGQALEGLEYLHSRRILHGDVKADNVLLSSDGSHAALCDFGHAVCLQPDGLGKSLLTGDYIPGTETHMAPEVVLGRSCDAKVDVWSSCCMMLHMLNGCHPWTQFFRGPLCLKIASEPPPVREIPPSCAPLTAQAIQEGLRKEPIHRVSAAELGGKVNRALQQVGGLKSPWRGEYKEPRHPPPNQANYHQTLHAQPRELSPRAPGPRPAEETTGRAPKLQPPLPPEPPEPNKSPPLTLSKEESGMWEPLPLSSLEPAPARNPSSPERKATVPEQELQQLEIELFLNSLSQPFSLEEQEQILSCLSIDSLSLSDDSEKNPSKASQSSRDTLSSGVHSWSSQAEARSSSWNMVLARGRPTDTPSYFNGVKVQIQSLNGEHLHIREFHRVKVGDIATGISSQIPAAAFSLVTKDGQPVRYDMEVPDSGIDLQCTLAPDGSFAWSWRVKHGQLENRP
Protocol: as §1

[18] = target: T6, DRAK2 (Homo sapiens, UniProt O94768)
T6 construct: gene STK17B
T6 sequence (O94768 whole entry): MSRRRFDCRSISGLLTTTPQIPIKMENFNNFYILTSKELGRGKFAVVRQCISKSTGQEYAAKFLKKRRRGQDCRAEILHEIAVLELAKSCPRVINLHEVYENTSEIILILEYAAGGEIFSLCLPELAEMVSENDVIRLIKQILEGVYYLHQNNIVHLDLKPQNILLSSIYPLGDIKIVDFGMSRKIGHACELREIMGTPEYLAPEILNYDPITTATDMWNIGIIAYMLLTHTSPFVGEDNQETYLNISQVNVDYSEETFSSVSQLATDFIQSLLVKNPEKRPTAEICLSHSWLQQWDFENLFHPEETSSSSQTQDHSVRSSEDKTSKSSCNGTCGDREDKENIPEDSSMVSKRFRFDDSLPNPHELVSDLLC
Protocol: as §1

[19] = target: T7, RSK3(Kin.Dom.1-N-terminal) (Homo sapiens, UniProt Q15349)
T7 construct: gene RPS6KA2; Kin.Dom.1-N-terminal
Protocol: as §1

[20] = target: ULK3 (Homo sapiens, UniProt Q6PHR2)
Protocol: as §1

[21] = target: CAMKK2 (Homo sapiens, UniProt Q96RR4)
Protocol: as §1

SMILES: O=C(/C=C/c1cnccc1-c1ccc(F)cc1)Nc1ccc(CCc2nnco2)cc1 [T-418, (2E)-3-(4-(4-fluorophenyl)pyridin-3-yl)-N-(4-(2-(1,3,4-oxadiazol-2-yl)ethyl)phenyl)acrylamide]
- remaining binding at 0.3 µM ([1]; sheet T-418): 100%
- remaining binding at 0.3 µM ([2]; sheet T-418): 100%
- remaining binding at 0.3 µM ([3]; sheet T-418): 73%
- remaining binding at 0.3 µM ([4]; sheet T-418): 49%
- remaining binding at 0.3 µM ([5]; sheet T-418): 90%
- remaining binding at 0.3 µM ([6]; sheet T-418): 100%
- remaining binding at 0.3 µM ([7]; sheet T-418): 71%
- remaining binding at 0.3 µM ([8]; sheet T-418): 86%
- remaining binding at 0.3 µM ([9]; sheet T-418): 100%
- remaining binding at 0.3 µM ([10]; sheet T-418): 100%
- remaining binding at 0.3 µM ([11]; sheet T-418): 91%
- remaining binding at 0.3 µM ([12]; sheet T-418): 100%
- remaining binding at 0.3 µM ([13]; sheet T-418): 89%
- remaining binding at 0.3 µM ([14]; sheet T-418): 100%
- remaining binding at 0.3 µM ([15]; sheet T-418): 85%
- remaining binding at 0.3 µM ([16]; sheet T-418): 100%
- remaining binding at 0.3 µM ([17]; sheet T-418): 100%
- remaining binding at 0.3 µM ([18]; sheet T-418): 94%
- remaining binding at 0.3 µM ([19]; sheet T-418): 79%
- remaining binding at 0.3 µM ([20]; sheet T-418): 20%
- remaining binding at 0.3 µM ([21]; sheet T-418): 100%

SMILES: Cc1ncccc1Oc1sc(C(N)=O)c2c1-c1c(cnn1C)CC2 [T-474, 1-methyl-8-((2-methylpyridin-3-yl)oxy)-4,5-dihydro-1H-thieno[3,4-g]indazole-6-carboxamide]
- remaining binding at 0.3 µM [1]: 100%
- remaining binding at 0.3 µM [2]: 100%
- remaining binding at 0.3 µM [3]: 71%
- remaining binding at 0.3 µM [4]: 48%
- remaining binding at 0.3 µM [5]: 95%
- remaining binding at 0.3 µM [6]: 100%
- remaining binding at 0.3 µM [7]: 73%
- remaining binding at 0.3 µM [8]: 95%
- remaining binding at 0.3 µM [9]: 100%
- remaining binding at 0.3 µM [10]: 99%
- remaining binding at 0.3 µM [11]: 86%
- remaining binding at 0.3 µM [12]: 100%
- remaining binding at 0.3 µM [13]: 87%
- remaining binding at 0.3 µM [14]: 95%
- remaining binding at 0.3 µM [15]: 70%
- remaining binding at 0.3 µM [16]: 100%
- remaining binding at 0.3 µM [17]: 100%
- remaining binding at 0.3 µM [18]: 100%
- remaining binding at 0.3 µM [19]: 100%
- remaining binding at 0.3 µM [20]: 20%
- remaining binding at 0.3 µM [21]: 100%
